Reference: publication PMC8322070, “A novel orally active HDAC6 inhibitor T-518 shows a therapeutic potential for Alzheimer’s disease and tauopathy in mice” (Scientific Reports, 2021)

Columns and labels:
[1] = tested on: tubulin acetylation in mouse primary neural cultures; assay: Tubulin acetylation in mouse primary neural culture (ELISA); format: cell-based; details: 24 h
Method: (§1) T-518, ACY-738, Ricolinostat, and Tubastatin A were synthesized in Takeda. For in vitro cellular experiments, the compounds were solubilized with DMSO and diluted in the culture medium at the indicated concentrations. For in vivo experiments, the compound was reconstituted in 0.5% methylcellulose and administered orally at the indicated doses. After administration, mouse hippocampus was isolated and homogenized in RIPA extraction buffer (50 mM Tris–HCl, 150 mM NaCl, 1% NP-40, 0.5% sodium deoxycholate, and 0.1% SDS, pH 8.0) supplemented with protease and phosphatase inhibitor cocktail (Thermo Fischer, Waltham, MA, USA). The homogenate was centrifuged at 10,000g for 15 min and the supernatant was taken as the RIPA-soluble fraction.
Primary cortical neurons were prepared from E14 C57BL/6J mouse embryos (CLIEA Japan, Inc., Tokyo, Japan) using papain-containing Neuron Dissociation Solutions (Fujifilm Wako, Tokyo, Japan). Isolated cells were suspended in Neurobasal Medium containing B-27 (Thermo Fisher) and seeded on poly-D-lysine-coated plates (Corning, NY, USA) under 5% CO2 at 37 °C for 6 days in vitro (DIV) prior to evaluation of HDAC6 inhibitors. Cells were treated with HDAC6 inhibitors at the indicated concentrations for 24 h and lysed in RIPA extraction buffer (50 mM Tris–HCl, 150 mM NaCl, 1% NP-40, 0.5% sodium deoxycholate, and 0.1% SDS, pH 8.0) supplemented with protease and phosphatase inhibitor cocktail (Thermo Fisher).
Acetylated α-tubulin and total tubulin levels were measured by sandwich ELISA. Ninety six-well plates (Microlite2+, Thermo) were coated with α-tubulin capture antibody (1:100) by overnight incubation at 4 °C, washed 4 times with PBS'T, treated with blocking buffer (1% bovine serum albumin in PBS'T) at 37 °C for 2 h, and washed another 4 times with PBS’T. Cell or tissues lysate was added to the wells and plates were incubated at 37 °C for 2 h. Plates were then washed 4 times with PBST, incubated with a detection antibody for acetylated tubulin or total α-tubulin diluted in blocking buffer at 37℃ for 1 h, rewashed 4 more times with PBST, incubated with a mouse secondary antibody conjugated to horseradish peroxidase (HRP) for 30 min, wash 4 times again with PBST, and then incubated with chemiluminescent substrate (SuperSignal).

[2] = tested on: acetylated tubulin in hippocampus; assay: In vivo pharmacodynamics: acetylated tubulin in hippocampus (ELISA); details: 0.3–300 mg/kg orally, 4 h after administration, C57BL/6J mice
Method: as §1
Acetylated α-tubulin and total tubulin levels were measured by sandwich ELISA. Ninety six-well plates (Microlite2+, Thermo) were coated with α-tubulin capture antibody (1:100) by overnight incubation at 4 °C, washed 4 times with PBS'T, treated with blocking buffer (1% bovine serum albumin in PBS'T) at 37 °C for 2 h, and washed another 4 times with PBS’T. Cell or tissues lysate was added to the wells and plates were incubated at 37 °C for 2 h. […]

SMILES: O=C1c2cc(-c3nnc(C(F)F)o3)cnc2CN1[C@@H]1CCCC[C@H]1NC(=O)C(F)(F)C(F)(F)F [T-518, N-[(1R,2R)-2-{3-[5-(difluoromethyl)-1,3,4-oxadiazol-2-yl]-5-oxo-5H,6H,7H-pyrrolo[3,4-b]pyridin-6-yl}cyclohexyl]-2,2,3,3,3-pentafluoropropanamide]
- effect on tubulin acetylation ([1]; DIV6 mouse primary neural culture, 0.1–10 μM, ELISA): significantly and concentration-dependently elevates tubulin acetylation
- concentration at which elevation of tubulin acetylation is statistically significant ([1]; mouse neurons): ≥ 0.1 µM
- tubulin acetylation in hippocampi [2]: dose-dependently increased tubulin acetylation
